Data set [1] deals with mouse whole blood (male), red blood cells. Nature of the data set: In vitro hemolysis test, mouse blood. To be noted: 15 min at 37° C.; for % Hemolysis: Mouse Blood; for interpretation of hemolysis to Red Blood Cells: mouse whole unclotted blood, concentrations tested. Here is the method: (§1) APAP and GBP alone or in combination were evaluated in the in vitro hemolysis test using four biologic matrices (mouse, rat, dog and human whole unclotted blood) to determine the hemolytic potential for each on red blood cells.

Data set [2] in a line: Stability of gabapentin in presence of different stabilizers and solvents. It is filed as physicochemical. As to conditions: GBP 9 mg/mL in acetate buffer. Here is the method: GBP containing formulations were prepared by dissolving GBP to a concentration of 9 mg/mL in acetate buffer. A first set of samples were tested for assay and impurities after the initial preparation of formulation. Another set of samples were steam sterilized at 121° C. for 15 min and were tested for assay and impurity levels.

Data set [3] has as its system human (pooled) whole blood, red blood cells. Nature of the data set: In vitro hemolysis test, human blood. To be noted: 15 min at 37° C.; for % Hemolysis: Human Blood; for interpretation of hemolysis to Red Blood Cells: human whole unclotted blood, concentrations tested. Here is the method: as §1
The subject of the next data set is motor control. Nature of the data set: Mouse RotoRod/Acelerorod test. As to conditions: mice, 15 minute IV infusion, 10 mg Acetaminophen/mL, 8 mg Gabapentin/mL; 1, 2, 4, 6 h. The protocol:
Mouse tail flick test was conducted to evaluate test somatic pain and mouse rotorod/acelorod test evaluated behavioral changes, specifically somnolence or dizziness
In each case a positive control was administered as described below.
Male ICR mice were trained on a RotoRod/Acelerod at a continuous accelerating speed from 4 to 30 rpm/min during a time period of 4 minutes for at least 3 times on day 0. Vehicle or test article at a single dose is administered by intravenous infusion over 15 minutes starting 30 minutes before the test period starts and chlorpromazine (30 mg/kg, PO) was administered by oral gavage 60 minutes before the start of the test period. At 1, 2, 4, and 6 hours after the start of the test the mice are placed on the accelerating rotorod (increasing from 4 to 30 rpm/min during a 4 min period) and the time (seconds) the mouse remained on the rotorod was recorded. One-way ANOVA followed by Dunnett's test is applied for comparison between vehicle control and test article groups. P<0.05 is considered significant.
A baseline was measured before administration of the test agents and at 1, 2, 4 and 6 h post the start of the study. The effect of the compounds was evaluated in the standard RotoRod/Acelerorod test.
On the technique in general: In the rotarod test animals must keep their balance on a rotating rod.

Data set [4] deals with rat whole blood (male), red blood cells. Nature of the data set: In vitro hemolysis test, rat blood. To be noted: 15 min at 37° C.; for % Hemolysis: Rat Blood; for interpretation of hemolysis to Red Blood Cells: rat whole unclotted blood, concentrations tested. Here is the method:
as §1

Another data set concerns rats. The data set is described as follows: Toxicologic profile in rats (clinical pathology, necropsy, histopathology).
Data set [5] can be described thus: Pharmacokinetics in rats after 15 min IV infusion. As to conditions: for AUC / Cmax: male, rat, plasma, iv. The protocol: Formulation compositions were prepared by dissolving GBP and/or APAP as indicated in Table 5 and the pH was adjusted to 5.5 using HCl or NaOH.
Blood samples were collected over a 24 h period at which time the rats were exsanguinated and blood collected for Clinical Pathology (Chemistry, Hematology and Coagulation) evaluation. Finally, all animals were necropsied (all exterior and interior cavities and organs were examined) and the site of infusion in the jugular vein, lung, liver and kidney underwent histopathologic evaluation.

Data set [6] relates to beagle dog whole blood (male), red blood cells. Nature of the data set: In vitro hemolysis test, dog blood. As to conditions: 15 min at 37° C.; for % Hemolysis: Dog Blood; for interpretation of hemolysis to Red Blood Cells: dog whole unclotted blood, concentrations tested. The protocol: as §1
For data set [7] the following is noted: Koshy et al; cited from earlier work.

On to “1-(aminomethyl) cyclohexane acetic acid [Gabapentin]”, for which the “% Hemolysis” value is given as 0% in data set [1] (GBP 2 mg/mL); 0% in data set [1] (GBP 4 mg/mL); 0% in [1] (GBP 8 mg/mL); 0% in data set [3] (GBP 2 mg/mL); 2% in [3] (GBP 4 mg/mL); 0% in [3] (GBP 8 mg/mL). In addition, the “% Hemolysis” value in data set [4] (GBP 2 mg/mL), in data set [4] (GBP 4 mg/mL), in [4] (GBP 8 mg/mL), in data set [6] (GBP 2 mg/mL), in data set [6] (GBP 4 mg/mL) and in data set [6] (GBP 8 mg/mL) was 0% in each case. Also, the “interpretation of hemolysis to Red Blood Cells” value in data set [1], in data set [3], in [4] and in data set [6] was “not considered to be hemolytic” each time. In addition, in data set [2], the “order of stability of GBP in solvents and stabilizers” value is “PVP>Glycine>Lysine>Propylene Glycol>Sorbitol>PEG400>Glycerol>Mannitol>Sodium Oleate>β-cyclodextrin>Deoxychloic Acid>CMC>L-Glutamic Acid”. Further, the “stability of GBP with stabilizer” value in data set [2] (PVP at 10 mg/mL) is recorded as “more stable”. The “decrease in motor control compared to the vehicle control” value in the data set with motor control is “no statistically significant decrease in motor control”. Besides, the “Clinical Pathology (Clinical Chemistry, Hematology or Coagulation Parameters)” value in the data set on rats (24 h after 15 minute IV infusion) was “did not alter the Clinical Pathology”. Further, the “histopathology of tissues compared to vehicle control” value in the data set on rats (infusion site, lung, liver, kidney) was “no changes in the histopathology”. Further, in data set [5] (15 min IV infusion), the “Gabapentin PK AUC” value is given as 37,663 ng · h/mL. The “Gabapentin PK Cmax” value in [5] (15 min IV infusion) is listed as 20,138 ng/mL. Also, in [5] (in the presence of APAP), the “PK profile of GBP” value is “no change”.

Usually AUC stands for the area under the concentration-time curve, a measure of exposure. Broadly, the Cmax is the maximum level reached in the sampled fluid or tissue. In the case of `CC(=O)Nc1ccc(O)cc1` [Acetaminophen], the “% Hemolysis” value in data set [1] (APAP 5 mg/mL) worked out at 4%; in data set [1] (APAP 10 mg/mL), 4%; in [3] (APAP 5 mg/mL) it was 0%; in [3] (APAP 10 mg/mL), 0%; in [4] (APAP 5 mg/mL), 0%; in data set [4] (APAP 10 mg/mL) it was 0%. In addition, the figures for the “% Hemolysis” value in data set [6] (APAP 5 mg/mL) and in data set [6] (APAP 10 mg/mL) were 0% and 5%, respectively. Besides, the “interpretation of hemolysis to Red Blood Cells” value in [1], in [3], in data set [4] and in [6] was “not considered to be hemolytic” in each case. Also, in the data set on motor control, the “decrease in motor control compared to the vehicle control” value is “no statistically significant decrease in motor control”. Besides, in data set [7], the “pH range of minimum hydrolysis of APAP” value is 5-7. For the same molecule, the AUC in data set [5] (Acetaminophen PK AUC, 15 min IV infusion) is 7280 ng·h/mL; in [5] (Bioequivalent Range (80-125%) AUC, 15 min IV infusion, 80-125% of single-drug value) it was 5830 to 9110 ng·h/mL. Besides, the Cmax is 10100 ng/mL in [5] (Acetaminophen PK Cmax, 15 min IV infusion) and 8110 to 12700 ng/mL in data set [5] (Bioequivalent Range (80-125%) Cmax, 15 min IV infusion, 80-125% of single-drug value).

These data come from patent US10052296B2, “Formulations for treating pain” (priority 2016, dated 2018).
